From patent US7041677B2, “Use of monochloroflosequinan in the treatment of sexual dysfunction” (R.T. Alamo Ventures I, LLC, priority 2002, dated 2006)

Assays:
[1] = molecular target: T1, PDE2 (Homo sapiens, UniProt O00408); assay: PDE2 enzyme inhibition assay; type: biochemical; details: 1% DMSO vehicle
T1 construct: PDE2 partially purified from human platelets was used; from tissue; host or cells: human platelets
Source text: (§1) In this example, a racemic mixture of monochloroflosequinan and the sulfone derivative of monochloroflosequinan were independently subjected to biochemical enzyme assays to determine their respective percent inhibition of a variety of phosphodiesterases (PDE1-PDE6). The methods used have been adapted from those described in the scientific literature, see Hidaka and Asano “Human blood platelet 3′:5′ cyclic nucleotide phosphodiesterase. Isolation of low-Km and high Km phosphodiesterase.” Biochem. Biophys. […] Unhydrolyzed cAMP was bound to AGI-X2 resin, and the remaining [^3H]adenosine in the aqueous phase was quantitated by scintillation counting. • PDE2: PDE2 partially purified from human platelets was used. […] Unhydrolyzed cAMP was bound to AGI-X2 resin, and the remaining [^3H]adenosine in the aqueous phase was quantitated by scintillation counting. • PDE3: PDE3 partially purified from human platelets was used. […] Unhydrolyzed cAMP was bound to AGI-X2 resin, and the remaining [^3H]adenosine in the aqueous phase was quantitated by scintillation counting. • PDE4: PDE4 partially purified from human U-937 pronocytic cells was used. […] Unhydrolyzed cAMP was bound to AGI-X2 resin, and the remaining [^3H]adenosine in the aqueous phase was quantitated by scintillation counting. • PDE5: PDE5 partially purified from human platelets was used. […]

[2] = Plasma levels following oral administration; type: in vivo
[3] = tested on: PDE4; assay: PDE4 enzyme inhibition assay; type: biochemical, human; details: 200 μM, 25° C., 1% DMSO vehicle
Source text: as §1

T1 sequence (O00408 whole entry): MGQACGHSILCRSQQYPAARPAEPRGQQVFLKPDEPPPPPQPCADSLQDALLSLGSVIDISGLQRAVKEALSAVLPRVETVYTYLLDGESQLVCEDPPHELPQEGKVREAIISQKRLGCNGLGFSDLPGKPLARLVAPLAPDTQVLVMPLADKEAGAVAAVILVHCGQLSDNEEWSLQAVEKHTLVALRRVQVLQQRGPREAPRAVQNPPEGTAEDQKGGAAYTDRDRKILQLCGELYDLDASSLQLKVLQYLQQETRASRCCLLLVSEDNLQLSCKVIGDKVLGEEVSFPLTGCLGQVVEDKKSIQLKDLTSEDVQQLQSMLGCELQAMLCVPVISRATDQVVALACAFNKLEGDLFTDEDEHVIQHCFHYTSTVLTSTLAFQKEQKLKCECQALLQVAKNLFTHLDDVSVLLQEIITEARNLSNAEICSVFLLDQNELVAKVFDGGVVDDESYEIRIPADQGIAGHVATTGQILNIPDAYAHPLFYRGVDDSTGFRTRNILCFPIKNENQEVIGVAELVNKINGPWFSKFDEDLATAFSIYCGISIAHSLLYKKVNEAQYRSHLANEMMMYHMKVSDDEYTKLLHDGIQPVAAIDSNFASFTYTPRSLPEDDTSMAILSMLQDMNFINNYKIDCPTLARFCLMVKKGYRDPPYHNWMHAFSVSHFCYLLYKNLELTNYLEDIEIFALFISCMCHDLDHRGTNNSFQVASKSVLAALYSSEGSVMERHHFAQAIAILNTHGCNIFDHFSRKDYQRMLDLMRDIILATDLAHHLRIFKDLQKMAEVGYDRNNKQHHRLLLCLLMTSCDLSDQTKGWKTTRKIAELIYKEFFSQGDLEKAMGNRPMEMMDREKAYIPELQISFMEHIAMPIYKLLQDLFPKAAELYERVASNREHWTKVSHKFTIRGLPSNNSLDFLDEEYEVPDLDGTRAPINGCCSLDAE

For `Cn1cc([S+]([O-])CCl)c(=O)c2ccc(F)cc21` (racemic) [monochloroflosequinan, 3-chloromethylsulfinyl-7-fluoro-1-methyl-4-quinolone], the “inhibition of PDE2” value ([1]; 100 uM, 30° C.) was “Significant inhibition”.

For `Cn1cc([S@+]([O-])CCl)c(=O)c2ccc(F)cc21` (single isomer, unassigned) [(+)-enantiomer of monochloroflosequinan], the “time of peak plasma concentrations” value ([2]; following oral administration) was 1 to 2 h, the “time of peak metabolite plasma levels” value ([2]; following oral dosage) was “about seven” and the “inhibition of PDE2” value ([1]; 200 μM, 25° C.) was “greater than 50%”.

In the case of `Cn1cc([S@@+]([O-])CCl)c(=O)c2ccc(F)cc21` (single isomer, unassigned) [(−)-enantiomer of monochloroflosequinan], the “inhibition of PDE4” value [3] is reported as “greater than 50%”.
